ChEMBL document CHEMBL1201862, “PubChem BioAssay data set” (2004)
Calls of active or inactive are those of the source.

Key:
[1] = M. tuberculosis growth inhibition, HTS (AID 449762); format: functional
[2] = molecular target: T1, Corticotropin-releasing factor receptor 2/Corticotropin-releasing factor-binding protein (Homo sapiens, UniProt P24387+Q13324); test: activators of CRF receptor 2 with binding protein – uHTS hits, confirmation (AID 602473); format: functional; settings: read-out: EC50_Mean
T1 sequence (Q13324 whole entry): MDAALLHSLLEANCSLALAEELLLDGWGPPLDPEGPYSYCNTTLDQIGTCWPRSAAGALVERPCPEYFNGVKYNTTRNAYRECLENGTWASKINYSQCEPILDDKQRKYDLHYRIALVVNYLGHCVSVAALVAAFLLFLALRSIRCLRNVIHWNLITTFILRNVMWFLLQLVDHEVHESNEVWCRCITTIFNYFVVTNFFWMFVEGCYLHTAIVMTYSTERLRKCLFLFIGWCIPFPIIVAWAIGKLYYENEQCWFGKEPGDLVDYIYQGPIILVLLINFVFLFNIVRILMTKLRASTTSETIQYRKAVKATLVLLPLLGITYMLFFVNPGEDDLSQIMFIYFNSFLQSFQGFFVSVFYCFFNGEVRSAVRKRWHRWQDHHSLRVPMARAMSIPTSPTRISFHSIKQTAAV
T1 sequence (P24387 whole entry): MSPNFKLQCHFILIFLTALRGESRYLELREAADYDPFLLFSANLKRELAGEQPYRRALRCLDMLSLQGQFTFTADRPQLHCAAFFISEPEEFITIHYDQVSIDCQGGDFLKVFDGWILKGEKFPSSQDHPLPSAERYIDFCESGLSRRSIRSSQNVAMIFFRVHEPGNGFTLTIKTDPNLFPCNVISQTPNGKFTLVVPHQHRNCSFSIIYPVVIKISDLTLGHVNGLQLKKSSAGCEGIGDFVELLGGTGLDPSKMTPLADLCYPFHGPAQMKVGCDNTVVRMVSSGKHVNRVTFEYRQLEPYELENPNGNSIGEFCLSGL

[3] = molecular target: Heat shock protein HSP 90-alpha (Homo sapiens, UniProt P07900); test: Luminescence-based dose response biochemical high throughput screening assay for inhibitors of the Heat Shock Protein 90 (HSP90). [Related pubchem assays: 1831 (Summary AID.), 1846 (Confirmation screen.), 1789 (Primary screen.)]
[4] = Luminescence Cell-Based Dose Confirmation HTS to Identify Activators of 5'UTR Stem-Loop Driven Alpha-Synuclein mRNA Translation in H4 Neuroglioblastoma Cells. [Related pubchem assays: 1829 (Project Summary), 1814 (Primary HTS)]; format: functional
[5] = molecular target: T2, RNA-binding protein pos-1 (Caenorhabditis elegans, UniProt G5EF15); test: disruptors of C. elegans POS-1 RNA interaction – biochemical, fluorescence polarization, dose response (AID 1964);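 further: purified POS-1 fused to maltose binding protein made in E. coli; potency of compounds blocking POS-1 binding to fluorescent RNA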
T2 sequence (G5EF15 whole entry): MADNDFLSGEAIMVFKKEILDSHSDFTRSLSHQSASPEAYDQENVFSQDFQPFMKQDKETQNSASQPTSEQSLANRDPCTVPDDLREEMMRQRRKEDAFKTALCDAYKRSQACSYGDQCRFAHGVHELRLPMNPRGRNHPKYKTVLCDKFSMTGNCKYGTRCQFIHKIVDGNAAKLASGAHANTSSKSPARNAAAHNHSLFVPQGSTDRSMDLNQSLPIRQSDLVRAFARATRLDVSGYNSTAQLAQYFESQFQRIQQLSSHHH

[6] = Luminescence Cell-Based Dose Response HTS to Identify Activators of Luciferase Translation or Activity in H4 […] Cells. [Related pubchem assays: 1829 (Project Summary), 1814 (Primary HTS)]; format: functional
H4 = test: Luminescence Cell-Based Dose Response HTS to Identify Activators of 5'UTR Stem-Loop Driven Prion Protein mRNA Translation in H4 Neuroglioblastoma Cells. [Related pubchem assays: 1829 (Project Summary), 1814 (Primary HTS)]; format: functional; settings: Homo sapiens
[7] = molecular target: T3, Zinc finger protein mex-5 (Caenorhabditis elegans, UniProt Q9XUB2); test: potency of MEX-5 RNA-binding blockers – biochemical, C. elegans, fluorescence polarization, dose response (AID 1960)
T3 sequence (Q9XUB2 whole entry): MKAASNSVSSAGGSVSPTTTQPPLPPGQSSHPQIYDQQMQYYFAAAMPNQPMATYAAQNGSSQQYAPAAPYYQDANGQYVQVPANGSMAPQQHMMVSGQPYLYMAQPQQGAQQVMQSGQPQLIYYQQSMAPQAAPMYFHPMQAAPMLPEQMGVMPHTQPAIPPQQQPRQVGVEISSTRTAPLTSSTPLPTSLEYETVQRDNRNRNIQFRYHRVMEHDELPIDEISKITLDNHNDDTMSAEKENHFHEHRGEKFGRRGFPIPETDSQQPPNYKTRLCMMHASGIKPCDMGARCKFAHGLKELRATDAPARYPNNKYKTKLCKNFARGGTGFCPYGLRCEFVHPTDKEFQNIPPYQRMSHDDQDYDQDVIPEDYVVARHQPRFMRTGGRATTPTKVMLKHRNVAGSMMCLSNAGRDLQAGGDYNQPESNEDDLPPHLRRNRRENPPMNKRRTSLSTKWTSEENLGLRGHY

[8] = molecular target: Luciferin 4-monooxygenase (Photinus pyralis, UniProt P08659); test: In vitro luciferase assay using purified luciferase. [Related pubchem assays: 1299, 1270, 1295, 1375, 1287, 1281, 1293, 1291, 1289, 1280, 465, 1364, 1282, 1372, 1365, 1370, 1367, 1366, 1266, 1373, 1292, 1290, 1302, 1371, 1283, 1271, 1294, 1374, 1368, 1369 ]
Sequence of Luciferin 4-monooxygenase (P08659 whole entry): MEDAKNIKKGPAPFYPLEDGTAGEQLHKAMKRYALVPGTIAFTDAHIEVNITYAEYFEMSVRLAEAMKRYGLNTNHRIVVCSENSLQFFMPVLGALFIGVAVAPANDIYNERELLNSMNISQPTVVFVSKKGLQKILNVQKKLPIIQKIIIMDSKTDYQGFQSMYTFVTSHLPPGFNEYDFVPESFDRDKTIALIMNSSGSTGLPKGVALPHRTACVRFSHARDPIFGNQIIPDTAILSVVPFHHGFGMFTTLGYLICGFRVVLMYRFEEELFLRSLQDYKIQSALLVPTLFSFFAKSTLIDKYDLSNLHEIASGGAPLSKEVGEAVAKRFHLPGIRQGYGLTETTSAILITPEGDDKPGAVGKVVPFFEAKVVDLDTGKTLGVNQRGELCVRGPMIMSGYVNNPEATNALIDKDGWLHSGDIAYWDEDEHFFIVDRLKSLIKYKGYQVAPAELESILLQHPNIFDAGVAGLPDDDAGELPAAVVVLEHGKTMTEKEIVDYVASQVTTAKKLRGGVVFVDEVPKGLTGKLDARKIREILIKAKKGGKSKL

HEK293 [9] = test: TNF Induced NF-kB Luciferase in 293-NF-kB-Luc Stable Cells. [Related pubchem assays: 1266, 1299, 1269, 1373, 1292, 1290, 1302, 1371, 1283, 1270, 1295, 1271, 1375, 1294, 1374, 1281, 1293, 1291, 1289, 1280, 465, 1368, 1364, 1282, 1372, 1365, 1369, 1370, 1367, 1366 ]; format: functional, cell-based; settings: Homo sapiens
HEK293 [10] = test: Cytotoxicity assay in HEK293 cells. [Related pubchem assays (depositor defined):AID1266, AID1269, AID1270, AID1271, AID1280, AID1281, AID1282, AID1283, AID1287, AID1289, AID1290, AID1291, AID1292, AID1293, AID1294, AID1295, AID1299, AID1302, AID1364, AID1365, AID1366, AID1367, AID1369, AID1370, AID1371, AID1372, AID1373, AID1374, AID1375, AID1384 …; format: functional, cell-based; settings: Homo sapiens
HEK293 [11] = test: PMA/Ionomycin induced NF-kB luciferase assay in 293- NF-kB-Luc stable cells. [Related pubchem assays: 1299, 1270, 1295, 1375, 1287, 1281, 1293, 1291, 1289, 1280, 465, 1364, 1282, 1372, 1365, 1370, 1367, 1366, 1269, 1373, 1292, 1290, 1302, 1371, 1283, 1271, 1294, 1374, 1368, 1369 ]; format: functional, cell-based; settings: Homo sapiens
[12] = viability loss in Vero cells – cytotoxicity control for Vif-APOBEC3G degradation inhibitor project, dose response (AID 1117358); format: functional; settings: Vero
H9c2 = test: cells; format: functional, cell-based; settings: Rattus norvegicus, H9c2, Myocardium;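 further: confirmatory concentration-response retest of ultra-high-throughput screening hits for modulation of myocardial damage; cell death induced by hydrogen peroxide oxidative stress; compound pretreatment for 60 min then peroxide exposure for 2 h; potency is for protecting the cells against peroxide damage rather than for killing them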
Genome polyprotein = Genome polyprotein (Hepatitis C virus, UniProt Q2Q167); test: disruption of hepatitis C core self-association – biochemical, TR-FRET, dose response (AID 2159); parameters: species or system Hepacivirus hominis;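 further: blocks dimerization of HCV core protein measured by TR-FRET between tagged core106 pairs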
Sequence of Genome polyprotein (Q2Q167 whole entry): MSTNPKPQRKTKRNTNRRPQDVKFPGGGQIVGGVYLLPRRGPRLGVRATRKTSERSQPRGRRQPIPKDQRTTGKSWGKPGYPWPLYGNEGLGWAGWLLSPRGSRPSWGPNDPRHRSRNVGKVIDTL

Clc1ccc(CSc2nc[nH]n2)cc1
IC50 [1]: > 100 µM (active)

Cc1ccc2oc(=O)c(/C=C(\O)c3cccs3)nc2c1
EC50 [2]: 4.87 µM (active) | IC50 [3]: 5.05 µM (active) | EC50 [4]: 16.6 µM (active) | EC50 [5]: 21.3 µM (inconclusive) | EC50 [6]: 13.1 µM (active) | EC50 (H4): 16.5 µM (active) | EC50 [7]: 6.82 µM (inconclusive)

Cc1ccc2[nH]c(=O)c(C(=O)/C=C/c3ccccc3Cl)c(-c3ccccc3)c2c1
EC50 [8]: > 8 µM (not active) | EC50 (HEK293 [9]): 2.6 µM (active) | EC50 (HEK293 [10]): 5.72 µM (inactive) | EC50 (HEK293 [11]): 1.17 µM (active)

COc1cc2c(cc1NC(=O)CC1SC(N3CCCC3)=NC1=O)oc1ccccc12 (stereo not given)
CC50 [12]: > 40 µM (active)

COc1ccc2oc(C(=O)Nc3ccc(N4CCOCC4)cc3)c(C)c2c1
IC50 (H9c2): > 79 µM (inactive) | IC50 (Genome polyprotein): > 49.8 µM (not active)
